Data from patent US8981092B2, “Substituted 3,4-dihydro-2H-pyrrolo[1,2-a]pyrazin-1-ones as modulators of protein kinase activity” (Nerviano Medical Sciences S.r.l., priority 2008, dated 2015).

Molecular target: Full-length human PIM-1 (Homo sapiens, UniProt P11309)
Settings: read-out: PIM-1 IC50; ATP 200 μM, Aktide 25 μM, enzyme 1 nM
Description: Biochemical Assay for Inhibitors of PIM-1 Kinase Activity
The inhibitory activity of putative kinase inhibitors and the potency of selected compounds were determined using a trans-phosphorylation assay.
Specific peptide or protein substrates are trans-phosphorylated by their specific ser-thr or tyr kinase in the presence of ATP traced with ^33P-γ-ATP, and in the presence of their own optimal buffer and cofactors.
At the end of the phosphorylation reaction, more than 98% unlabeled ATP and radioactive ATP is captured by an excess of the ion exchange dowex resin; the resin then settles down to the bottom of the reaction plate by gravity.
Supernatant is subsequently withdrawn and transferred into a counting plate, then evaluated by β-counting.
The buffer for PIM-1 assay was composed of HEPES 50 mM, at pH 7.5, with 10 mM MgCl2, 1 mM DTT, 3 μM NaVO3, and 0.2 mg/ml BSA
ATP concentration: 200 μM
Enzyme concentration: 1 nM
The test mix consisted of:
1) 3× Enzyme mix (done in Kinase Buffer 3×), 5 μL/well
2) 3× substrate and ATP mix (done in ddH2O), together with ^33P-γ-ATP, 5 μL/well
3) 3× test compounds (diluted into ddH2O-3% DMSO)-5 μL/well
a) for percent inhibition studies (HTS), individual dilution plates at 1 mM are diluted at a 3× concentration (30 μM) in ddH2O (3% DMSO=final concentration) using a Beckman NX automated pipetting platform. The same instrument is used for distributing the diluted mother plates into the test plates.
An automated station for serial dilutions (Biomek FX, Beckman) is used for producing 1:3 dilutions in 100% DMSO, from line A1 to A10, and for all the seven compounds in the column.
At the start of the run, the robot aspirates 5 μL of ATP mix, makes an air gap inside the tips (2 μL) and aspirates 2 μL of PIM mix. The following dispensation into the plates allows the kinase reaction to start upon 3 cycles of mixing, done by the robot itself.
The robot incubates the plates for 60 minutes at room temperature, and then stops the reaction by pipetting 70 μL of dowex resin suspension into the reaction mix. Three cycles of mixing are done immediately after the addition of the resin.
Another mixing cycle is performed after all the plates are stopped, this time using normal tips: the plates are then allowed to rest for about one hour in order to maximize ATP capture.
Data are analysed by an internally customized version of the SW package “Assay Explorer” that provides either % inhibition for primary assays or sigmoidal fittings of the ten-dilutions curves for IC50 determination in the secondary assays/hit confirmation routines.

Full-length human PIM-1, sequence (P11309 whole entry): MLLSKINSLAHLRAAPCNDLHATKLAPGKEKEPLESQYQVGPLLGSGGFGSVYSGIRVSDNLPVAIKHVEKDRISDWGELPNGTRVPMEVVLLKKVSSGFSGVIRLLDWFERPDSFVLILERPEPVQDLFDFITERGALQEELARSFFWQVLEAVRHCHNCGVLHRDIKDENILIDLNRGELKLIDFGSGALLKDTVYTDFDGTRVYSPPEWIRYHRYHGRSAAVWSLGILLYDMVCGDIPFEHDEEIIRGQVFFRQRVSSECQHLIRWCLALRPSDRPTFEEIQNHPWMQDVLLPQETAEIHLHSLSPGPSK

CN1CCN(C(=O)CC2CNC(=O)c3cc(-c4cccc(F)c4)cn32)C(c2ccccc2)C1 (mixture of isomers) [Compound A127-M-B63]
IC50: 390 nM

CN1CCN(C(=O)CC2CNC(=O)c3cc(-c4cccc(C(F)(F)F)c4)cn32)C(c2ccccc2)C1 (mixture of isomers) [Compound A133-M-B63]
IC50: 2540 nM

CN1CCN(C(=O)CC2CNC(=O)c3cc(-c4ccnc(F)c4)cn32)C(c2ccccc2)C1 (mixture of isomers) [Compound A157-M-B63]
IC50: 690 nM

CN1CCN(C(=O)CC2CNC(=O)c3cc(-c4cc(F)ccc4F)cn32)C(c2ccccc2)C1 (mixture of isomers) [Compound A158-M-B63]
IC50: 400 nM

O=C(C[C@H]1CNC(=O)c2cc(-c3cccc(F)c3)cn21)N[C@H](CO)C1CCCCC1 [A127-M-B61 isomer S]
IC50: 20 nM

O=C(C[C@H]1CNC(=O)c2cc(-c3cccc(F)c3)cn21)N[C@H](CO)c1ccccc1 [A127-M-B62 isomer S]
IC50: 90 nM

O=C(C[C@@H]1CNC(=O)c2cc(-c3cccc(F)c3)cn21)N[C@H](CO)Cc1ccccc1 [A127-M-B64 isomer R]
IC50: 2910 nM

NC[C@@H](NC(=O)C[C@H]1CNC(=O)c2cc(-c3cccc(F)c3)cn21)c1ccccc1 [A127-M-B65 isomer S]
IC50: 10 nM

O=C(C[C@@H]1CNC(=O)c2cc(-c3cccc(C(F)(F)F)c3)cn21)N[C@H](CO)C1CCCCC1 [A133-M-B61 isomer R]
IC50: 5940 nM

O=C(C[C@H]1CNC(=O)c2cc(-c3cccc(C(F)(F)F)c3)cn21)N[C@H](CO)C1CCCCC1 [A133-M-B61 isomer S]
IC50: 70 nM

O=C(C[C@@H]1CNC(=O)c2cc(-c3cccc(C(F)(F)F)c3)cn21)N[C@H](CO)c1ccccc1 [A133-M-B62 isomer R]
IC50: 4830 nM

O=C(C[C@H]1CNC(=O)c2cc(-c3cccc(C(F)(F)F)c3)cn21)N[C@H](CO)c1ccccc1 [A133-M-B62 isomer S]
IC50: 130 nM

O=C(C[C@@H]1CNC(=O)c2cc(-c3cccc(C(F)(F)F)c3)cn21)N[C@H](CO)Cc1ccccc1 [A133-M-B64 isomer R]
IC50: 2040 nM

NC[C@@H](NC(=O)C[C@H]1CNC(=O)c2cc(-c3cccc(C(F)(F)F)c3)cn21)c1ccccc1 [A133-M-B65 isomer S]
IC50: 50 nM

O=C(C[C@@H]1CNC(=O)c2cc(-c3ccnc(F)c3)cn21)N[C@H](CO)C1CCCCC1 [A157-M-B61 isomer R]
IC50: 270 nM

O=C(C[C@@H]1CNC(=O)c2cc(-c3ccnc(F)c3)cn21)N[C@H](CO)c1ccccc1 [A157-M-B62 isomer R]
IC50: 1140 nM

O=C(C[C@@H]1CNC(=O)c2cc(-c3ccnc(F)c3)cn21)N[C@H](CO)Cc1ccccc1 [A157-M-B64 isomer R]
IC50: 700 nM

O=C(C[C@@H]1CNC(=O)c2cc(-c3cc(F)ccc3F)cn21)N[C@H](CO)C1CCCCC1 [A158-M-B61 isomer R]
IC50: 860 nM

O=C(C[C@@H]1CNC(=O)c2cc(-c3cc(F)ccc3F)cn21)N[C@H](CO)c1ccccc1 [A158-M-B62 isomer R]
IC50: 550 nM

NCC(NC(=O)CC1CNC(=O)c2cc(-c3cc(F)ccc3F)cn21)c1ccccc1 (stereo not drawn) [A158-M-B65 isomer S]
IC50: 30 nM

O=C(CC1CNC(=O)c2cc(-c3ccsc3)cn21)NCC1CCCCC1 (stereo not drawn) [Compound A33-M-B22]
IC50: 460 nM

O=C(CC1CNC(=O)c2cc(-c3ccsc3)cn21)NCc1cccc(F)c1 (stereo not drawn) [Compound A33-M-B30]
IC50: 580 nM

O=C(CC1CNC(=O)c2cc(-c3cccc(F)c3)cn21)NCc1ccccc1 (stereo not drawn) [Compound A127-M-B14]
IC50: 180 nM

O=C(CC1CNC(=O)c2cc(-c3cccc(F)c3)cn21)NCc1cccc(F)c1 (stereo not drawn) [Compound A127-M-B30]
IC50: 190 nM

CC(C)CCNC(=O)CC1CNC(=O)c2cc(-c3cccc(F)c3)cn21 (stereo not drawn) [Compound A127-M-B32]
IC50: 610 nM

O=C(CC1CNC(=O)c2cc(-c3cccc(F)c3)cn21)NCc1ccncc1 (stereo not drawn) [Compound A127-M-B39]
IC50: 570 nM

O=C(CC1CNC(=O)c2cc(-c3ccccc3F)cn21)NCc1ccccc1 (stereo not drawn) [Compound A128-M-B14]
IC50: 200 nM

O=C(CC1CNC(=O)c2cc(-c3ccccc3F)cn21)NCC1CCCCC1 (stereo not drawn) [Compound A128-M-B22]
IC50: 120 nM

O=C(CC1CNC(=O)c2cc(-c3ccccc3F)cn21)NCc1cccc(F)c1 (stereo not drawn) [Compound A128-M-B30]
IC50: 270 nM

CC(C)CCNC(=O)CC1CNC(=O)c2cc(-c3ccccc3F)cn21 (stereo not drawn) [Compound A128-M-B32]
IC50: 700 nM

O=C(CC1CNC(=O)c2cc(-c3ccccc3F)cn21)NCc1ccncc1 (stereo not drawn) [Compound A128-M-B39]
IC50: 540 nM

O=C(CC1CNC(=O)c2cc(-c3ccccc3F)cn21)NCc1ccco1 (stereo not drawn) [Compound A128-M-B40]
IC50: 250 nM

O=C(CC1CNC(=O)c2cc(-c3ccc(F)cc3)cn21)NCC1CCCCC1 (stereo not drawn) [Compound A129-M-B22]
IC50: 130 nM

O=C(CC1CNC(=O)c2cc(-c3ccc4c(c3)OCO4)cn21)NCC1CCCCC1 (stereo not drawn) [Compound A132-M-B22]
IC50: 360 nM

O=C(CC1CNC(=O)c2cc(-c3cccc(C(F)(F)F)c3)cn21)NCc1ccccc1 (stereo not drawn) [Compound A133-M-B14]
IC50: 810 nM

O=C(CC1CNC(=O)c2cc(-c3cccc(C(F)(F)F)c3)cn21)NCC1CCCCC1 (stereo not drawn) [Compound A133-M-B22]
IC50: 380 nM

O=C(CC1CNC(=O)c2cc(-c3cccc(C(F)(F)F)c3)cn21)NCc1ccc(F)cc1 (stereo not drawn) [Compound A133-M-B30]
IC50: 610 nM

O=C(CC1CNC(=O)c2cc(-c3cccc(OC(F)(F)F)c3)cn21)NCc1ccccc1 (stereo not drawn) [Compound A134-M-B14]
IC50: 720 nM

O=C(CC1CNC(=O)c2cc(-c3cccc(OC(F)(F)F)c3)cn21)NCc1cccc(F)c1 (stereo not drawn) [Compound A134-M-B30]
IC50: 890 nM

O=C(CC1CNC(=O)c2cc(-c3ccc(F)c(F)c3)cn21)NCc1ccccc1 (stereo not drawn) [Compound A139-M-B14]
IC50: 220 nM

O=C(CC1CNC(=O)c2cc(-c3ccc(F)c(F)c3)cn21)NCC1CCCCC1 (stereo not drawn) [Compound A139-M-B22]
IC50: 90 nM

O=C(CC1CNC(=O)c2cc(-c3ccc(F)c(F)c3)cn21)NCc1ccc(F)cc1 (stereo not drawn) [Compound A139-M-B30]
IC50: 410 nM

O=C(CC1CNC(=O)c2cc(-c3ccc(F)c(F)c3)cn21)NCc1ccncc1 (stereo not drawn) [Compound A139-M-B39]
IC50: 980 nM

O=C(CC1CNC(=O)c2cc(-c3ccc(F)c(F)c3)cn21)NCc1ccco1 (stereo not drawn) [Compound A139-M-B40]
IC50: 130 nM

COC(=O)c1cccc(-c2cc3n(c2)C(CC(=O)NCc2ccccc2)CNC3=O)c1 (stereo not drawn) [Compound A142-M-B14]
IC50: 4830 nM

COC(=O)c1cccc(-c2cc3n(c2)C(CC(=O)NCc2cccc(F)c2)CNC3=O)c1 (stereo not drawn) [Compound A142-M-B30]
IC50: 2520 nM

O=C(CC1CNC(=O)c2cc(-c3cn[nH]c3)cn21)NCc1ccccc1 (stereo not drawn) [Compound A144-M-B14]
IC50: ≥ 10000 nM

O=C(CC1CNC(=O)c2cc(-c3cn[nH]c3)cn21)NCC1CCCCC1 (stereo not drawn) [Compound A144-M-B22]
IC50: 480 nM

O=C(CC1CNC(=O)c2cc(-c3cn[nH]c3)cn21)NCc1ccc(F)cc1 (stereo not drawn) [Compound A144-M-B30]
IC50: 1100 nM

O=C(CC1CNC(=O)c2cc(-c3cccc(Cl)c3)cn21)NCc1ccccc1 (stereo not drawn) [Compound A150-M-B14]
IC50: 140 nM

O=C(CC1CNC(=O)c2cc(-c3cccc(Cl)c3)cn21)NC1CCCCC1 (stereo not drawn) [Compound A150-M-B24]
IC50: 210 nM

CCCNC(=O)CC1CNC(=O)c2cc(-c3cccc(Cl)c3)cn21 (stereo not drawn) [Compound A150-M-B25]
IC50: 450 nM

O=C(CC1CNC(=O)c2cc(-c3cccc(Cl)c3)cn21)NC1CCCC1 (stereo not drawn) [Compound A150-M-B26]
IC50: 240 nM

CC(C)CCNC(=O)CC1CNC(=O)c2cc(-c3cccc(Cl)c3)cn21 (stereo not drawn) [Compound A150-M-B32]
IC50: 230 nM

Cc1ccccc1NC(=O)CC1CNC(=O)c2cc(-c3cccc(Cl)c3)cn21 (stereo not drawn) [Compound A150-M-B36]
IC50: 1390 nM

O=C(CC1CNC(=O)c2cc(-c3cccc(Cl)c3)cn21)NCCN1CCOCC1 (stereo not drawn) [Compound A150-M-B38]
IC50: 1060 nM

O=C(CC1CNC(=O)c2cc(-c3cccc(Cl)c3)cn21)NCc1ccncc1 (stereo not drawn) [Compound A150-M-B39]
IC50: 220 nM

COCCCNC(=O)CC1CNC(=O)c2cc(-c3cccc(Cl)c3)cn21 (stereo not drawn) [Compound A150-M-B42]
IC50: 590 nM

CC(C)(C)NC(=O)CC1CNC(=O)c2cc(-c3cccc(Cl)c3)cn21 (stereo not drawn) [Compound A150-M-B43]
IC50: 790 nM

O=C1NCC(CC(=O)N2CCCCCC2)n2cc(-c3cccc(Cl)c3)cc21 (stereo not drawn) [Compound A150-M-B45]
IC50: 580 nM

O=C(CC1CNC(=O)c2cc(-c3cccc(Cl)c3)cn21)NCC1CC1 (stereo not drawn) [Compound A150-M-B48]
IC50: 120 nM

C=CCN1CCN(C(=O)CC2CNC(=O)c3cc(-c4cccc(Cl)c4)cn32)CC1 (stereo not drawn) [Compound A150-M-B49]
IC50: 230 nM

O=C(CC1CNC(=O)c2cc(-c3cccc(Cl)c3)cn21)Nc1ccccc1 (stereo not drawn) [Compound A150-M-B52]
IC50: 430 nM

O=C(CC1CNC(=O)c2cc(-c3ccc(F)cc3F)cn21)NCc1ccccc1 (stereo not drawn) [Compound A151-M-B14]
IC50: 100 nM

CC(C)CCNC(=O)CC1CNC(=O)c2cc(-c3ccc(F)cc3F)cn21 (stereo not drawn) [Compound A151-M-B32]
IC50: 490 nM

O=C(CC1CNC(=O)c2cc(-c3ccc(F)cc3F)cn21)NCc1ccncc1 (stereo not drawn) [Compound A151-M-B39]
IC50: 4110 nM
